The values that follow come from publication PMC10394673, “Module walking using an SH3-like cell-wall-binding domain leads to a new GH184 family of muramidases” (Acta Crystallographica. Section D, Structural Biology, 2023).

The structures appear in SMILES notation. Peptide text beside a SMILES is read from it.

For assay [1], the target named is T1, TsCWBD (Trichophaea saccata, UniProt A0AA82WPC9).
T1 construct: isolated N-terminal SH3-like CWBD, residues 1-73 of the 245-residue GH24 muramidase, about 10 kDa, recombinant; no catalytic domain
T1 sequence (A0AA82WPC9 1-73): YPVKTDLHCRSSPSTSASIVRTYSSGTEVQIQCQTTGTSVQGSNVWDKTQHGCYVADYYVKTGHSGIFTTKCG
The assay can be described thus: X-ray crystal structure, […] A. It is filed as binding. Particulars: co-crystallized with 10 mM triglycine, pH 8.5; canonical SH3 specificity zone (Asp6, His8, Arg10); zinc-bridged crystal contact.

Assay [2] concerns the target T1, TsCWBD. Description: nanoDSF thermal shift. The assay is classed as binding. Particulars: pH 8.5; Chelex-treated and untreated protein.

On to `NCC(=O)NCC(=O)NCC(=O)O` [triglycine] (H-Gly-Gly-Gly-OH), for which the “X-ray crystal structure, 1.18 A” value in assay [1] is on record as “The triglycine in our structure is bound within the canonical specificity zone”. Moreover, the thermal shift entry in assay [2] was “the thermal shift is present for both treated and untreated samples, implying ligand binding”.
